Assay results as given in US20160120805A1, “EXOSOMES FOR OROFACIAL DIAGNOSTICS AND THERAPEUTICS” (THE TRUSTEES OF COLUMBIA UNIVERSITY IN THE CITY OF NEW YORK, priority 2013, published 2016).

Key:
exosome secretion = experiment: Exosome secretion measured by protein concentration; assay type: cell-based
[1] = tested on: reconstituted dental epithelium and mesenchyme tissues; experiment: Organ culture of reconstituted E16.5 dental epithelium and mesenchyme tissue, dentin formation; assay type: cell-based; details: 10 uM, control formed dentin at day 10
Experimental: E16.5 epithelium and mesenchyme tissue (see e.g., FIG. 9A) were reconstituted (see e.g., FIG. 9B) under dissection microscope. The reconstituted organ were cultured for 12 days (see e.g., FIG. 9C-D).

Q: Which results are given for `O=C(/C=C/c1ccc(/C=C/C(=O)Nc2ccc(C3=NCCN3)cc2)cc1)Nc1ccc(C2=NCCN2)cc1` [GW4869]?
A: exosome secretion (exosome secretion; 1.0 uM): decreased; exosome secretion (exosome secretion; 10.0 uM): decreased; dentin formation [1]: No dentin formed
